Assay results taken from patent US20210361733A1, “Prevention and Treatment of SARS-CoV-2 Infection by Mentha piperita and Flos chrysanthemi Extracts alone, and their Combination” (priority 2021, published 2021).
Entries after “also recorded” stand apart in the source; their conditions may differ.

Columns and labels:
SARS-CoV-2 [1] = assay type: cell-based
Vero cell line = assay: Cytotoxicity of herbal extracts on Vero cell line, MTT assay; details: concentration not printed
SARS-CoV-2 [2] = details: prophylactic/therapeutic (full-time) setting, at 37° and 4° C., by CPE and RT-PCR; cited from earlier work

Row | SMILES | viral load inhibition (increasing Cq value, decreasing percent viral copy number) (SARS-CoV-2 [1]; reference drugs: Chloroquine phosphate 9.69 μM/mL, Remdesivir 8.297 μM/mL) | inhibition of SARS-CoV-2 (SARS-CoV-2 [1]; viral full entry and post entry treatment points) | cytotoxicity / percent inhibition (MTT assay) (Vero cell line) | cytotoxicity / percent inhibition (MTT assay) (Vero cell line; listed as Chloroquine) | antiviral activity (SARS-CoV-2 [2])
1 | CCN(CC)CCCC(C)Nc1ccnc2cc(Cl)ccc12 (stereo not drawn) [Chloroquine phosphate] | viral load inhibition | inhibition of SARS-CoV-2 | non-toxic | no inhibition | –
2 | CCC(CC)COC(=O)[C@H](C)N[P@](=O)(OC[C@H]1O[C@@](C#N)(c2ccc3c(N)ncnn23)[C@H](O)[C@@H]1O)Oc1ccccc1 [Remdesivir] | – | – | no inhibition; also recorded: non-toxic | – | –
3 | CCN(CCO)CCCC(C)Nc1ccnc2cc(Cl)ccc12 (stereo not drawn) [hydroxychloroquine] | – | – | – | – | significant antiviral activity
